Data: US11634388B2 (Chengdu Easton Biopharmaceuticals Co., Ltd., priority 2018, dated 2023)
Where a name gives a salt, the structure may show the parent alone.

How the values were obtained:
[1] = Stability study of crystal form (XRPD before and after placement); type: physicochemical
[2] = Pharmacokinetic study in rats; type: in vivo; settings: male, rat, plasma, po; SD rats, intragastric 10 mg/kg, suspension in oil, mean ± SD
Experimental: About 20 mg of the test drug was taken, added into 8 mL of vegetable oil and shaken well, to prepare a 2.5 mg/mL suspension.
6 SD rats, all males, 200-220 g, provided by Chengdu Dashuo Biotechnology Co., Ltd.
The rats were intragastrically administrated with 10 mg/kg of the drug. Before administration and at 5 min, 15 min, 30 min, 1 h, 2 h, 4 h, 6 h, 8 h, 24 h after administration, 0.2 mL of jugular blood was taken and placed in EDTA-K2 anticoagulant tube, centrifuged for 10 min at 3000 r/min. The plasma was separated and frozen in the refrigerator at −80° C. After all blood collections were completed, the blood drug concentration in each blood sample was analyzed and determined autonomously, and the parameters of the test drugs (Tmax, time to maximum plasma concentration; Cmax, maximum plasma concentration; AUClast) were calculated.

[3] = Determination of the dissolution rate (500 ml medium, 37° C., 50 r/min, HPLC); type: physicochemical
Experimental: (50 r/min). At 5 min, 10 min, 15 min, 20 min, 30 min, 45 min and 60 min, the concentrations of lenvatinib in the medium were determined by using high performance liquid chromatography.

[4] = prior art WO2018164436; cited from earlier work
[5] = pH 1.0 medium (hydrochloric acid), 5 min
[6] = pH 6.8 medium (potassium dihydrogen phosphate buffer), 5 min

| concentration of lenvatinib in the medium [3, 5] | concentration of lenvatinib in the medium ([3]; pH 1.0 medium, 10 min) | concentration of lenvatinib in the medium ([3]; pH 1.0 medium, 15 min) | concentration of lenvatinib in the medium ([3]; pH 1.0 medium, 20 min) | concentration of lenvatinib in the medium ([3]; pH 1.0 medium, 30 min) | concentration of lenvatinib in the medium ([3]; pH 1.0 medium, 45 min) | concentration of lenvatinib in the medium ([3]; pH 1.0 medium, 60 min) | concentration of lenvatinib in the medium [3, 6] | concentration of lenvatinib in the medium ([3]; pH 6.8 medium, 10 min) | concentration of lenvatinib in the medium ([3]; pH 6.8 medium, 15 min) | concentration of lenvatinib in the medium ([3]; pH 6.8 medium, 20 min) | concentration of lenvatinib in the medium ([3]; pH 6.8 medium, 30 min) | concentration of lenvatinib in the medium ([3]; pH 6.8 medium, 45 min) | concentration of lenvatinib in the medium ([3]; pH 6.8 medium, 60 min) | Structure (SMILES) | also measured |
| --- | --- | --- | --- | --- | --- | --- | --- | --- | --- | --- | --- | --- | --- | --- | --- |
| 1480 µg/mL | 1540 µg/mL | 1540 µg/mL | 1520 µg/mL | 1560 µg/mL | 1570 µg/mL | 1600 µg/mL | 3.6 µg/mL | 3.8 µg/mL | 3.9 µg/mL | 3.9 µg/mL | 3.9 µg/mL | 3.9 µg/mL | 4 µg/mL | COc1cc2nccc(Oc3ccc(NC(=O)NC4CC4)c(Cl)c3)c2cc1C(N)=O [Crystal form X, lenvatinib mesylate] | crystal transformation before and after the stability tests ([1]; all conditions of Table 4): did not undergo crystal transformation; Result of crystal form (XRPD) ([1]; high humidity 25° C., RH 93.5%, 1 month): No obvious change; Result of crystal form (XRPD) ([1]; high humidity 25° C., RH 93.5%, 7 days): No obvious change; Result of crystal form (XRPD) ([1]; strong light illumination, 7 days): No obvious change; Result of crystal form (XRPD) ([1]; temperature 2~8° C., 10 days): No obvious change; AUC(0-t) [2]: 90900 ± 19600 ng·h/mL; Cmax [2]: 9.87 µg/mL; Tmax [2]: 1.17 ± 0.41 h |
| – | – | – | – | – | – | – | – | – | – | – | – | – | – | COc1cc2nccc(Oc3ccc(NC(=O)NC4CC4)c(Cl)c3)c2cc1C(N)=O [crystal form M, lenvatinib mesylate] | solubility [4]: not evidently improved |
| 410 µg/mL | 470 µg/mL | 520 µg/mL | 550 µg/mL | 610 µg/mL | 670 µg/mL | 720 µg/mL | 2.7 µg/mL | 3 µg/mL | 3.1 µg/mL | 3.2 µg/mL | 3.3 µg/mL | 3.4 µg/mL | 3.5 µg/mL | COc1cc2nccc(Oc3ccc(NC(=O)NC4CC4)c(Cl)c3)c2cc1C(N)=O [Crystal form C, lenvatinib mesylate, reference compound] | – |
